Values after ≈ are worked out from the molar mass of the structure shown.
How the values were obtained:
Format in all cases: cell-based
[1] = test system: HUVEC; assay: Antiproliferative activity on HUVEC cells; conditions: HUVEC human umbilical vein endothelial cells
Protocol: (§1) For the detailed evaluation of its biological profile as anti-cancer agent, cultured human tumor cell lines were treated with the closthioamide 1. In particular, closthioamide 1 was tested for its inhibitory effect on cell growth of different human cell lines.

[2] = test system: Candida albicans; assay: Standardized antimicrobial assay (agar diffusion test)
Protocol: (§2) For the detailed evaluation of their antimicrobial (antibacterial, antifungal) activity, dosthioamides according to the invention were subjected to standardized antimicrobial assays (Herold et al., Chem. Eur. J., 2005), e.g. agar diffusion test. In particular, closthioamide 1 was tested for its inhibitory effect on cell growth of different bacterial strains and/or fungi. The tested microbes included Bacillus subtilis, Staphylococcus aureus, E. coli, Pseudomonas aeruginosa, Staphylococcus aureus MRSA, Enterococcus faecalis VRE, Mycobacterium vaccae, Sporobolomyces salmonicolor, Candida albicans, and Penicillium notatum.

[3] = test system: Mycobacterium vaccae; assay: as above
Protocol: as §2

[4] = test system: Sporobolomyces salmonicolor; assay: as above
Protocol: as §2

[5] = test system: E. coli; assay: as above
Protocol: as §2

[6] = test system: Staphylococcus aureus; assay: as above
Protocol: as §2

[7] = test system: Bacillus subtilis; assay: as above
Protocol: as §2

[8] = test system: Pseudomonas aeruginosa; assay: as above
Protocol: as §2

[9] = test system: Penicillium notatum; assay: as above
Protocol: as §2

[10] = test system: HeLa; assay: Cytotoxicity on HeLa cells; conditions: HeLa human epithelial cervical cancer
Protocol: The major metabolite (1) was isolated from a 5 L culture and purified by sequential open column chromatography and RP-HPLC (FIG. 1), yielding 1.04 mg of a pale yellow compound. […] According to HR-MS measurements, 1 has a molecular formula of C29H38N6O2S6 and appeared to be amazingly rich in sulfur atoms. Furthermore, NMR data disclosed that the molecule is symmetrical: The ^13C NMR and DEPT spectra indicated the presence of six methylene, two methine, and five quaternary carbons. In the ^1H NMR spectrum signals corresponding to two olefinic and six methylene protons were observed (see Table 1).
as §1

[11] = test system: E. coli, Mycobacterium vaccae, MRSA, VRE; assay: Activity of synthetic closthioamide using 4 bacterial test strains (FIG. 4A)
Text: (§3) FIG. 4. A Activity of synthetic closthioamide (1) using 4 bacterial test strains; from left to right: (1) E. coli, (2) Mycobacterium vaccae, (3) methicillin-resistant Staphylococcus aureus (MRSA), (4) vancomycin-resistant Enterococcus faecalis (VRE). B Ciprofloxacin control.

[12] = Cytotoxicity (data not shown)
[13] = test system: Enterococcus faecalis VRE; assay: Standardized antimicrobial assay (agar diffusion test); conditions: for antibacterial activity: vancomycin-resistant Enterococcus faecalis
Text: as §3, §2

[14] = test system: Staphylococcus aureus MRSA; assay: as above
Text: as §3, §2

[15] = test system: K-562; assay: Antiproliferative activity on K-562 cells; conditions: K562; K-562 human erythromyeloblastoid leukemia cells
Protocol: as §1

In the case of `Oc1ccc(C(=S)NCCC(=S)NCCC(=S)NCCCNC(=S)CCNC(=S)CCNC(=S)c2ccc(O)cc2)cc1` [closthioamide 1, closthioamide], the GI50 [1] is reported as 6.4 µg/mL (≈ 9.21 µM), the antimicrobial activity [2] is reported as “showed activity” and the antimicrobial activity [3] is reported as “showed activity”. For the same compound, the antimicrobial activity [4] was “showed activity”, the antimicrobial activity [5] was “showed activity” and the antimicrobial activity [6] was “showed activity”. The antimicrobial activity [7] was “showed activity”, the antimicrobial activity [8] was “showed activity” and the antimicrobial activity [9] was “showed activity”. The CC50 [10] was 5.1 µg/mL (≈ 7.34 µM), the “activity of synthetic compound compared with the bacterial metabolite” value [11] was “equivalent to the activity of the bacterial metabolite” and the cytotoxicity [12] was “only moderate cytotoxicity”. The antimicrobial activity ([13]; Enterococcus faecalis VRE) was “showed activity”, the antibacterial activity ([13]; FIG. 4, synthetic closthioamide) was “highly active” and the antibacterial activity ([13]; preliminary bioactivity profiling, isolated metabolite) was “antibacterial activity”. For the same compound, the antibacterial activity ([14]; FIG. 4, synthetic closthioamide, methicillin-resistant Staphylococcus aureus) was “highly active”, the antimicrobial activity ([14]; Staphylococcus aureus MRSA) was “showed activity” and the antibacterial activity ([14]; preliminary bioactivity profiling, isolated metabolite, methicillin-resistant Staphylococcus aureus (MRSA)) was “antibacterial activity”. It also gave a GI50 [15] of 1.5 µg/mL (≈ 2.16 µM).

Source: patent US8673980B2, “Closthioamides, compositions, and methods for treating bacterial or fungal infections or cancer” (Leibniz-Institut fuer Naturstoff-Forschung und …, priority 2009, dated 2014)
